Measured values: patent US8183234B2, “Tricyclic guanidine derivatives as sodium-proton exchange inhibitors” (Piramal Life Sciences Limited, priority 2004, dated 2012)
Counter-ions that a name gives are not always drawn.

SMILES	melting point [°C]
Cc1cc(C(=O)N=C(N)N)cc2c1Oc1c(Cl)cc(S(=O)(=O)NCc3cccnc3)cc1CS2(=O)=O (as salt: mesylate) [Example 52, 4-Chloro-8-guanidinocarbonyl-6-methyl-10,10-dioxo-10,11-dihydro-5-oxa-10lambda*6*-thia-dibenzo[a,d]cycloheptene-2-sulfonic acid (pyridin-3-ylmethyl)-amide dimesylate]	271 to 273
Cc1cc(C(=O)N=C(N)N)cc2c1Oc1c(Cl)cc(N3CCN(C4CC4)CC3=O)cc1CS2(=O)=O (as salt: mesylate) [Example 58, N-[4-Chloro-2-(4-cyclopropyl-2-oxo-piperazin-1-yl)-6-methyl-10,10-dioxo-10,11-dihydro-5-oxa-10lambda*6*-thia-dibenzo[a,d]cycloheptene-8-carbonyl]-guanidine dimesylate]	195 to 196
Cc1cc(C(=O)N=C(N)N)cc2c1Oc1c(Cl)cc(NCCn3ccnc3)cc1CS2(=O)=O (as salt: mesylate) [Example 64, N-[4-Chloro-2-(2-imidazol-1-yl-ethylamino)-6-methyl-10,10-dioxo-10,11-dihydro-5-oxa-10lambda*6*-thia-dibenzo[a,d]cycloheptene-8-carbonyl]-guanidine dimesylate]	243 to 244
CCN(CCN1CCCC1)c1cc(Cl)c2c(c1)CS(=O)(=O)c1cc(C(=O)N=C(N)N)cc(C)c1O2 (as salt: mesylate) [Example 73, N-{4-Chloro-2-[ethyl-(2-pyrrolidin-1-yl-ethyl)-amino]-6-methyl-10,10-dioxo-10,11-dihydro-5-oxa-10lambda*6*-thia-dibenzo[a,d]cycloheptene-8-carbonyl}-guanidine dimesylate]	258 to 260
Cc1cc(C(=O)N=C(N)N)cc2c1Oc1c(Cl)cc(N3CCN(Cc4ccccc4)CC3)cc1CS2(=O)=O (as salt: mesylate) [Example 118, N-[2-(4-Benzyl-piperazin-1-yl)-4-chloro-6-methyl-10,10-dioxo-10,11-dihydro-5-oxa-10lambda*6*-thia-dibenzo[a,d]cycloheptene-8-carbonyl]-guanidine dimesylate]	280 to 285
Cc1cc(C(=O)N=C(N)N)cc2c1Oc1c(Cl)cc(CN)cc1CS2(=O)=O (as salt: mesylate) [Example 198, N-(2-Aminomethyl-4-chloro-6-methyl-10,10-dioxo-10,11-dihydro-5-oxa-10lambda*6*-thia-dibenzo[a.d]cycloheptene-8-carbonyl)-guanidine trimesylate]	242 to 244
Cc1cc2c(cc1C(=O)N=C(N)N)S(=O)(=O)Cc1ccccc1O2 (as salt: sulfonic acid salt) [Example 27, N-(7-Methyl-10,10-dioxo-10,11-dihydro-5-oxa-10lambda*6*-thia-dibenzo[a,d]cycloheptene-8-carbonyl)-guanidine, methane sulfonic acid salt]	272 to 274
Cc1cc(C(=O)N=C(N)N)cc2c1Oc1c(cccc1C(C)C)CS2(=O)=O (as salt: sulfonic acid salt) [Example 31, N-(4-Isopropyl-6-methyl-10,10-dioxo-10,11-dihydro-5-oxa-10lambda*6*-thia-dibenzo[a,d]cycloheptene-8-carbonyl)-guanidine, methane sulfonic acid salt]	252 to 253
Cc1cc(C(=O)N=C(N)N)cc2c1Oc1c(Cl)cc(N)cc1CS2(=O)=O (as salt: sulfonic acid salt) [Example 35, N-(2-Amino-4-chloro-6-methyl-10,10-dioxo-10,11-dihydro-5-oxa-10lambda*6*-thia-dibenzo[a,d]cycloheptene-8-carbonyl)-guanidine, methane sulfonic acid salt]	190 to 192
NC(N)=NC(=O)c1cc(Cl)c2c(c1)S(=O)(=O)Cc1cccc(Cl)c1O2 (as salt: sulfonic acid salt) [Example 45, 4,6-Dichloro-10,10-dioxo-10,11-dihydro-5-oxa-10lambda*6*-thia-dibenzo[a,d]cycloheptene-8-carbonylguanidine, methane sulfonic acid salt]	270 to 271
Cc1cc2c(cc1C(=O)N=C(N)N)S(=O)(=O)Cc1ccccc1N2 (as salt: sulfonic acid salt) [Example 183, N-(7-Methyl-10,10-dioxo-10,11-dihydro-5H-10lambda*6*-thia-5-aza-dibenzo[a.d]cycloheptene-8-carbonyl)-guanidine, methane sulfonic acid salt]	292 to 294
CS(=O)(=O)O.N=C(N)NC(=O)c1ccc2c(c1)S(=O)(=O)Cc1cc(Cl)ccc1O2 [Example 3, N-(2-Chloro-10,10-dioxo-10,11-dihydro-5-oxa-10lambda*6*-thia-dibenzo[a,d]cycloheptene-8-carbonyl)-guanidine, methanesulfonic acid salt]	280 to 282
CS(=O)(=O)O.N=C(N)NC(=O)c1ccc2c(c1)S(=O)(=O)Cc1c(F)cccc1O2 [Example 6, N-(1-Fluoro-10,10-dioxo-10,11-dihydro-5-oxa-10lambda*6*-thia-dibenzo[a,d]cycloheptene-8-carbonyl)-guanidine, methanesulfonic acid salt]	231 to 232
CC(C)c1cccc2c1Oc1ccc(C(=O)NC(=N)N)cc1S(=O)(=O)C2.CS(=O)(=O)O [Example 8, N-(4-Isopropyl-10,10-dioxo-10,11-dihydro-5-oxa-10lambda*6*-thia-dibenzo[a,d]cycloheptene-8-carbonyl)-guanidine, methanesulfonic acid salt]	220 to 222
CS(=O)(=O)O.Cc1cc(C(=O)NC(=N)N)cc2c1Oc1c(Cl)cc(S(=O)(=O)Nc3nnc(C4CC4)s3)cc1CS2(=O)=O [Example 51, 4-Chloro-8-guanidinocarbonyl-6-methyl-10,10-dioxo-10,11-dihydro-5-oxa-10lambda*6*-thia-dibenzo[a,d]cycloheptene-2-sulfonic acid (5-cyclopropyl-[1,3,4]thiadiazol-2-yl)-amide methane sulfonic acid salt]	221 to 222
CS(=O)(=O)O.CS(=O)(=O)O.Cc1cc(C(=O)NC(=N)N)cc2c1Oc1c(Cl)cc(S(=O)(=O)N3CCN(C)CC3)cc1CS2(=O)=O [Example 54, N-[4-Chloro-6-methyl-2-(4-methyl-piperazine-1-sulfonyl)-10,10-dioxo-10,11-dihydro-5-oxa-10lambda*6*-thia-dibenzo[a,d]cyclohepten-8-carbonyl]-guanidine dimesylate]	187 to 189
CS(=O)(=O)O.Cc1cc(C(=O)NC(=N)N)cc2c1Oc1c(Cl)cc(S(=O)(=O)N3CCOCC3)cc1CS2(=O)=O [Example 55, N-[4-chloro-6-methyl-2-(morpholine-4-sulfonyl)-10,10-dioxo-10,11-dihydro-5-oxa-10 lambda*6*-thia-dibenzo[a,d]cycloheptene-8-carbonyl]-guanidine methane sulfonic acid salt]	292 to 293
CS(=O)(=O)O.CS(=O)(=O)O.Cc1cc(C(=O)NC(=N)N)cc2c1Oc1c(Cl)cc(N3CCN(C(C)C)CC3=O)cc1CS2(=O)=O [Example 60, N-[4-Chloro-2-(4-isopropyl-2-oxo-piperazin-1-yl)-6-methyl-10,10-dioxo-10,11-dihydro-5-oxa-10lambda*6*-thia-dibenzo[a,d]cycloheptene-8-carbonyl]-guanidine dimesylate]	196 to 198
CS(=O)(=O)O.CS(=O)(=O)O.CS(=O)(=O)O.Cc1cc(C(=O)NC(=N)N)cc2c1Oc1c(Cl)cc(NCCN3CCN(C)CC3)cc1CS2(=O)=O [Example 62, N-{4-Chloro-6-methyl-2-[2-(4-methylpiperazin-1-yl)-ethylamino]-10,10-dioxo-10,11-dihydro-5-oxa-10lambda*6*-thia-dibenzo[a,d]cycloheptene-8-carbonyl}-guanidine trimesylate]	184 to 186
CCN(CCN1CCOCC1)c1cc(Cl)c2c(c1)CS(=O)(=O)c1cc(C(=O)NC(=N)N)cc(C)c1O2.CS(=O)(=O)O.CS(=O)(=O)O [Example 67, N-{4-Chloro-2-[ethyl-(2-morpholin-4-yl-ethyl)-amino]-6-methyl-10,10-dioxo-10,11-dihydro-5-oxa-10lambda*6*-thia-dibenzo[a,d]cycloheptene-8-carbonyl}-guanidine dimesylate]	248 to 250
CC(=O)N(CCN1CCOCC1)c1cc(Cl)c2c(c1)CS(=O)(=O)c1cc(C(=O)NC(=N)N)cc(C)c1O2.CS(=O)(=O)O.CS(=O)(=O)O [Example 68, N-(4-Chloro-8-guanidinocarbonyl-6-methyl-10,10-dioxo-10,11-dihydro-5-oxa-10lambda*6*-thia-dibenzo[a,d]cyclohepten-2-yl)-N-(2-morpholin-4-yl-ethyl)-acetamide dimesylate]	198 to 200
COCC(=O)N(CCN1CCOCC1)c1cc(Cl)c2c(c1)CS(=O)(=O)c1cc(C(=O)NC(=N)N)cc(C)c1O2.CS(=O)(=O)O.CS(=O)(=O)O [Example 69, N-(4-Chloro-8-guanidinocarbonyl-6-methyl-10,10-dioxo-10,11-dihydro-5-oxa-10lambda*6*-thia-dibenzo[a,d]cyclohepten-2-yl)-2-methoxy-N-(2-morpholin-4-yl-ethyl)-acetamide dimesylate]	168 to 169
CS(=O)(=O)O.CS(=O)(=O)O.CS(=O)(=O)O.Cc1cc(C(=O)NC(=N)N)cc2c1Oc1c(Cl)cc(NCCN3CCN(CCO)CC3)cc1CS2(=O)=O [Example 70, N-(4-Chloro-2-{2-[4-(2-hydroxy-ethyl)-piperazin-1-yl]-ethylamino}-6-methyl-10,10-dioxo-10,11-dihydro-5-oxa-10lambda*6*-thia-dibenzo{a,d}cycloheptene-8-carbonyl)-guanidine trimesylate]	218 to 220
CNCCNc1cc(Cl)c2c(c1)CS(=O)(=O)c1cc(C(=O)NC(=N)N)cc(C)c1O2.CS(=O)(=O)O.CS(=O)(=O)O [Example 71, N-[4-Chloro-6-methyl-2-(2-methylamino-ethylamino)-10,10-dioxo-10,11-dihydro-5-oxa-10lambda*6*-thia-dibenzo[a,d]cycloheptene-8-carbonyl)-guanidine dimesylate]	250 to 251
